Assay results taken from patent US11730714B2, “Compounds for the treatment of neuromuscular disorders” (NMD PHARMA A/S, priority 2017, dated 2023).

Columns and labels:
rat soleus muscles = experiment: Mg2+ concentration required to depress nerve-stimulated force by 50% (Kd,Mg2+), combination with 3,4-AP; format: cell-based; conditions: combination of C8 and 3,4-diaminopyridine; elevated extracellular Mg2+
Procedure: FIGS. 6A-6E. […] Muscles from 4-week-old rats were stimulated to contract by activating the motor nerve with short duration pulses in field stimulation. Muscles contracted every 10 min for 2 s in response to 30 Hz stimulation. Four different experimental conditions were used. […] C) similar to A) but this muscle had been pre-incubated with 3,4-AP. […] The force integral (AUC) was determined at each extracellular Mg^2+ concentration. AUC was plotted against Mg^2+ concentration and the data was fitted to a sigmoidal function. This provided the extracellular Mg^2+ concentration that was required to reduce the nerve-stimulated force to 50% (Mg50) under the four different conditions (see Table 5).
While the use of tubocurarine mimics conditions with reduced neuromuscular transmission due to post-synaptic dysfunction (myasthenia gravis, neuromuscular blockade), the experiments with elevated extracellular Mg^2+ mimics conditions with pre-synaptic dysfunction akin to a range of neuromuscular disorders including Lambert Eaton syndrome, motor neuron disorders and polyneuropathy. […] Based on this it was determined whether recovery of nerve-stimulated force at elevated extracellular Mg^2+ with CIC-1 inhibiting compounds could be added to force recovery with 3,4-AP. […] To quantify the effect of compounds on Mg^2+ sensitivity the force at the different Mg^2+ concentrations was determined. […]

[1] = test system: rats injected with tubocurarine; experiment: Rotarod running performance of rats after I.P. tubocurarine (myasthenia-like phenotype); format: in vivo, rat; conditions: C8 20 mg/kg I.P. 2 hrs before tubocurarine 0.13 mg/kg I.P.; tested 21 min after tubocurarine; sham around 2%
Procedure: FIGS. 9A-9B. […] FIG. 9A illustrates the design of the experiments. Prior to Day One the animals had been familiarized to the rotarod in three training sessions distributed over two days.
In both series of experiments, running performance was tested on a rotarod using a protocol where the rod was accelerated gradually over a 5 min period, and the running time and covered distance before falling off the rod were measured. […] Experiments with tubocurarine were carried out over two days, and on each day the effect of tubocurarine on running performance was tested. On the first day only tubocurarine was injected. […] On the second day, the animals were first allowed to run on the rotarod, and all animals performed normally. […] The allocation of the animals into the two groups (C8 or sham) was random and unknown to the experimenter (blinded experimental design).
In the first series of in vivo experiments, myasthenia gravis was simply mimicked by I.P. injection of tubocurarine (0.13 mg/kg) in animals that had been familiarized to running on the rotarod. On the first of two consecutive days, tubocurarine was injected I.P. and the running performance of the animal was tested 21 minutes after this injection. On the second day of experimentation, the animals first performed a test run to ensure that they were no longer affected by the tubocurarine injected the day before. […]

Lewis rats = experiment: In situ muscle contractile characteristics: isometric hindlimb force in rats under Cisatracurium infusion; format: in vivo, rat; conditions: 20 mg/kg i.v.
Procedure: Isometric hindlimb force was measured in 12-week old female Lewis rats in the presence and absence of compound.
Rats were placed under anesthesia with isoflurane (2-4%), intubated and subsequently connected to a micro ventilator (Microvent 1, Hallowell EMC, US). Two stimulation electrodes were inserted through the skin to stimulate the sciatic nerve. A small incision was made proximal to the ankle, to expose the Achilles tendon, which was tied by cotton string, and connected to a force transducer (Fort250, World Precision Instruments) with adjustable position (Vernier control). The Achilles tendon was then cut distal to the attached cotton string. […]
Muscle contractile properties were assessed by applying an electrical current (under supramaximal voltage conditions) to the nerve and recording the force generated by the muscle. The muscle was stretched until maximal force was obtained, when assessed by 2 Hz stimulation. Isometric force was measured every 30 seconds at 12 Hz (Twitch), 10 pulses, and at every 5 minutes at 80 Hz (Tetanic) for 1 second (80 pulses). […] The effect of test article was assessed on its ability to increase force generated from the stimulation pattern applied. The effect was assessed in the ability to increase force per se (tetanic, 80 Hz, stimulation), and the ratio between individual twitch peaks (12 Hz stimulation). […]

Row | Molecule | effect on recovery of neuromuscular transmission (rat soleus muscles) | increase in running performance on the second day vs the first day (rotarod) [1] | average increase in twitch peaks (Lewis rats; 12 Hz stimulation) [%] | average increase in tetanic force (Lewis rats; 80 Hz stimulation) [%]
1 | C[C@H](Oc1ccc(Br)cc1)C(=O)O [Compound C8, (2S)-2-(4-bromophenoxy)propanoic acid] | unexpected synergistic effect | around 150% | – | –
2 | (2S)-2-(4-bromophenoxy)(2-^2H)butanoic acid [Compound A-60] | – | – | 18.5 | 52.7
